# Experiments:
# [1] = system: Escherichia coli (DSM 1576); test: MIC determination by broth dilution (CLSI M07), 96-well plates; assay type: cell-based; details: E. coli; range tested: Comp. 1 100-0.05 g/L, D-mannose 65-0.03 g/L; 24 h
# Description: (§1) The antimicrobial activity of the product Comp. 1 in Example 10 was tested in vitro according to method CLSI M07 "Methods for dilution Antimicrobial susceptibility tests for bacteria that grow aerobically".
# (§2) For this purpose, the MIC (Minimum Inhibitory Concentration) values were determined with respect to the main microorganisms responsible for urinary tract infections.
# (§3) More specifically, the microorganisms utilised were: Escherichia coli (DSM 1576), Klebsiella pneumoniae (DSM 30104), and Enterococcus faecalis(DSM 20477).
# (§4) For each experiment conducted, the bacteria stated above were revived from a cell bank stored at -80°C. […]
# (§5) The assay to determine the MIC was conducted in 96-well plates testing 12 concentrations (serial dilutions) of each sample. 200 µL of the sample, prepared at a concentration of 2x with respect to the maximum concentration being tested, was dispensed into the first well and 100 µL medium was added to the subsequent wells, performing serial dilutions of 1:2 up to 12th well. Finally, 100 µL of each microorganism at a concentration of 10^5 was inoculated into each well.
# (§6) Two antibiotics were used as controls: Fosfomycin (Sigma) and Ceftriaxone (Sigma) at different final concentrations based on the microorganism utilised; both the antibiotics were dissolved in sterile water and then filtered with 0.22 µm filters.
# (§7) Growth was tested and the sterility of the medium and of the product was tested. The antimicrobial activity of the D-mannose was also assessed individually. The plates thus prepared were incubated at 37°C for 24h and the results were then observed (Figure 1). The final concentrations tested for each product analysed are stated in Table 2.
# [2] = system: Klebsiella pneumoniae (DSM 30104); test: as above; assay type: cell-based; details: K. pneumoniae; range tested: Comp. 1 100-0.05 g/L, D-mannose 65-0.03 g/L; 24 h
# Description: as §1, §2, §3, §4, §5, §6, §7
# [3] = system: Enterococcus faecium; test: as above; assay type: cell-based; details: E. faecium; range tested: Comp. 1 100-0.05 g/L, D-mannose 65-0.03 g/L; 24 h
# [4] = system: Klebsiella pneumoniae; test: MBIC, comparison with D-mannose, crystal violet staining; assay type: cell-based
# Description: (§8) To determine the MBIC with the product Comp. 1 in Example 10 with respect to the D-mannose, 48-well plates were utilised. 200 µL of the product Comp. 1, prepared at a concentration of 2x with respect to the maximum concentration being tested, was dispensed into the first well and […] was added to the subsequent wells, performing serial dilutions of 1:2 up to the 8th well. Finally, 200 µL of each microorganism, at a concentration of 10^5, was inoculated into each well. The biofilm inhibition activity of the D-mannose at the same concentration as that present in the product Comp. 1 was also assessed. The multiwell plates were incubated at 37°C for 24 hours and then the supernatant present was removed, together with the planktonic bacteria not attached to the plate. The biofilm was then washed 3 times with PBS and subsequently the cells were fixed by means of incubation at 60°C for 2 hours, before being stained with crystal violet. 100 µL crystal violet dissolved in deionised water was dispensed into each well and, after 5 minutes of incubation at room temperature, each well was finally washed three times with PBS 1x. The biofilm inhibition activity was viewed by microscopic observation under stereomicroscope and optical microscope using the phase-contrast method. The final concentrations tested for each compound are stated in Table 6. Table 6 [table]
# [5] = system: Escherichia coli; test: as above; assay type: cell-based
# Description: as §8
# [6] = system: Enterococcus faecium; test: as above; assay type: cell-based
# Description: as §8
# [7] = system: IL-8; test: Anti-inflammatory activity: IL-8 production induced by TNFα, ELISA; assay type: cell-based, human; details: 0.2 µg/mL TNFα, 6 hours
# Description: We assessed the capacity of the product Comp. 1 in Example 10 to inhibit or reduce the inflammatory state induced, in the same cells as in the previous example, by pro-inflammatory cytokine TNFα. This treatment led to the production of interleukin 8 (IL-8), which is cause of the "recruitment" of white blood cells to the site of inflammation. The IL-8 levels are directly proportional to the intensity of said inflammation.
# The 6 product concentrations utilised in the anti-inflammatory test were chosen based on the cell viability test results. […] This is because the product per se leads to the reduction, and therefore the staining, of the MTT.
# We first determined the optimal amount of TNFα to perform the test. […] The treatment was performed at 37°C and 5% CO2 for a total of 6 hours; aliquots of 200 µL of the growth medium were taken at the start of the treatment (T0) and after 1, 2, 4 and 6 hours, and then analysed by ELISA test. […]
# Anti-inflammatory drug dexamethasone (dex) at a concentration of 0.1 mg/mL was utilised as a positive control. The treatment was performed for 6 hours, at the end of which as aliquots of 200 µL of the growth medium were taken and then analysed by ELISA test. […] The quantification was performed by setting up a calibration curve with different concentrations of a standard IL-8 solution, supplied with the kit. […]
# [8] = system: Enterococcus faecium; test: MBEC test of composition versus its components, 24 h preformed biofilm, crystal violet; assay type: cell-based; details: MBEC E. faecium
# Description: To determine the minimum biofilm eradication concentration, 48-well plates were utilised. The microorganisms were incubated for 24 h at 37°C to allow the formation of the biofilm. Once formed, the biofilms were treated with the composition in Example 1 and the respective components (as per Example 17) to eradicate the biofilm. In particular, after the formation of the biofilm, the supernatant was suctioned and replaced with solutions containing decreasing concentrations of the product. The plates thus prepared were incubated for 24 h at 37°C. At the end of the incubation time, the supernatant present in each well was removed, together with the bacteria that was not attached to the plate and following the washes with sterile deionised water the plates were incubated at 60°C for 2 hours to fix the cells before the staining with crystal violet. The crystal violet staining was performed to assess the effect of the product and of the components thereof on the removal of the biofilm. 200 µL of crystal violet dissolved in deionised water at a concentration of 0.02% was dispensed into each well and, after 5 minutes of incubation at room temperature, each well was washed three times with sterile deionised water. The biofilm eradication activity was viewed under microscopic observation.
# [9] = system: Klebsiella Pneumoniae DSM 30104; test: MBIC test of composition versus its components, crystal violet absorbency at 595 nm; assay type: cell-based; details: MBIC K. pneumoniae
# Description: (§9) The composition of Example 1 was tested to assess the capacity to inhibit the formation of biofilm shown by the following microorganisms: • Klebsiella Pneumoniae DSM 30104 • Enterococcus Faecium DSM 20477
# (§10) The bacteria stated above were revived from the working cell bank, stored at -80°C, for each experiment conducted.
# (§11) The tests were conducted on the following formulations: • Mannose 3000 mg + NAC 600 mg + PEA 600 mg (i.e. composition Example 1) • Mannose 3000 mg + NAC 600 mg • PEA 600 mg
# (§12) The three formulations were dissolved at 100 gr/l in sterile TSB/TSYEM medium and then utilised to perform the MBIC test as follows.
# (§13) MBIC 48-well plates were utilised for the determination. 800 µL sample, prepared at a concentration of 2x with respect to the maximum concentration being tested, was dispensed into the first well and 400 µL medium was added to the subsequent wells, performing serial dilutions of 1:2 up to the 8th well. Finally, 400 µL of each microorganism at a concentration of 10^5 was inoculated into each well. The multiwell plates were incubated at 37°C for 24 hours and then the supernatant present was removed, together with the planktonic bacteria not attached to the plate.
# (§14) The biofilm was then washed 3 times with sterile deionised water and subsequently the cells were fixed by means of incubation at 60°C for 2 hours, before being stained with crystal violet. The crystal violet staining was performed to assess the effect of the product and the components thereof on the biofilm formation. 200 µL of 0.02% crystal violet dissolve in deionised water was dispensed into each well and, after 5 minutes of incubation at room temperature, each well was finally washed three times with sterile deionised water. The biofilm inhibition activity was viewed by microscopic observation under stereomicroscope.
# (§15) At the end of the microscopic observation of the condition of the biofilm by staining, the stain fixed to the biofilm treated was extracted utilising 100% methanol for 5 minutes at room temperature. The methanolic extract thus obtained was analysed under spectrophotometer to measure the absorbency at 595 nm. As the solution stain intensity obtained is proportional to the biofilm remaining, absorbency is a quantitative parameter which can be used to measure the amount of biofilm. Absorbency was therefore utilised to determine the biofilm decrease percentage by comparing the data obtained following treatments against the untreated biofilm control.
# [10] = system: Enterococcus Faecium DSM 20477; test: as above; assay type: cell-based; details: E. faecium MBIC
# Description: as §9, §10, §11, §12, §13, §14, §15
smiles,measurement,setting,value
O=C[C@@H](O)[C@@H](O)[C@H](O)[C@H](O)CO [D-mannose],antimicrobial activity,[1],did not demonstrate any antimicrobial activity
same,antimicrobial activity,[2],did not demonstrate any antimicrobial activity
same,antimicrobial activity,[3],did not demonstrate any antimicrobial activity
same,concentration of the mannose alone needed for the same efficaciousness as Comp. 1,[4]; K pneumoniae biofilm,approximately 10 times
same,concentration active on biofilm formation,"[4]; K. pneumoniae, 24 h",8.13 g/L
same,concentration of the mannose alone needed for the same efficaciousness as Comp. 1,[5]; E. coli biofilm,approximately 2.5 times
same,concentration active on biofilm formation,"[5]; E. coli, 24 h",32.5 g/L
same,concentration of the mannose alone needed for the same efficaciousness as Comp. 1,[6]; E. faecium biofilm,approximately 10 times
same,concentration with evident activity on the biofilm,"[6]; E. faecium, 24 h",65 g/L
"C[C@@H]1C[C@H]2[C@@H]3CCC4=CC(=O)C=C[C@]4(C)[C@@]3(F)[C@@H](O)C[C@]2(C)[C@@]1(O)C(=O)CO [Dex, dexamethasone]",concentration of IL-8 with respect to the cells treated solely with TNFα,"[7]; Dex 0.1 mg/mL, TNFα alone = 100",69%
same,IL-8 produced less than that produced by the cells treated solely with TNFα,[7]; Dexamethasone 0.1 mg/mL,31%
"CCCCCCCCCCCCCCCC(=O)NCCO [PEA, palmitoylethanolamide]",Abs 595 nm,"[8]; 24 h biofilm, 24 h treatment, untreated biofilm 2.09",2.098
same,% decrease,[8]; treated versus untreated biofilm,0%
same,Abs 595 nm,"[9]; 1.56 g/L product of Example 1, components at the same concentration as in the composition, untreated biofilm 0.176",0.129
same,% decrease,"[9]; treated versus untreated biofilm, 1.56 g/L product of Example 1",26.70%
same,Abs 595 nm,"[10]; 3.13 g/L product of Example 1, components at the same concentration as in the composition, untreated biofilm 0.318",0.304
same,% decrease,"[10]; treated versus untreated biofilm, 3.13 g/L product of Example 1",4%

# From EP4380555B1, “COMPOSITION COMPRISING D-MANNOSE, N-ACETYLCYSTEINE AND PALMITOYLETHANOLAMIDE AND ITS USE FOR THE TREATMENT OF URIRNARY TRACT INFECTIONS” (Agave S.r.l., priority 2021, dated 2023)
